Results on 28 compounds are retold here after ChEMBL document CHEMBL1136300, “Structure-activity relationship studies on 2-heteroaryl-4-arylimidazoles NPY5 receptor antagonists” (Bioorg Med Chem Lett, 2003).

In general, pKi refers to −log10 of the Ki, conventionally taken in molar units. Read a low pKi as a large Ki. In general, pEC50 refers to −log10 of the EC50, conventionally taken in molar units. A low value points to a large EC50.

The target in assay [1] is T1, Neuropeptide Y receptor type 5 (Homo sapiens, UniProt Q15761).
T1 sequence (Q15761 whole entry): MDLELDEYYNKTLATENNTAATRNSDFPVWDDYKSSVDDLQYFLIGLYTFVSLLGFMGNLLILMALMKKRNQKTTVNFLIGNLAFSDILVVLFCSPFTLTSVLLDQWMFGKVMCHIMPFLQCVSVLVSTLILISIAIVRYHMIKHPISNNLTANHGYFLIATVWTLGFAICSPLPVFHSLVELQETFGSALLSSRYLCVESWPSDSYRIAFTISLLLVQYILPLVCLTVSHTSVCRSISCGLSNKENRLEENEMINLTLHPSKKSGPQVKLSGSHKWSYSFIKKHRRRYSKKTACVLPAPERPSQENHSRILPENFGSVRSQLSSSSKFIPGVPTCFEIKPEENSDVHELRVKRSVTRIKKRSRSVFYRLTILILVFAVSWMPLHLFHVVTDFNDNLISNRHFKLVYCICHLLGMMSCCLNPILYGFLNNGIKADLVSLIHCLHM
The experiment in a line: Binding affinity towards human neuropeptide Y receptor type 5 using [125I]-PYY as radioligand in baculovirus-infected Sf9 cells.

Another assay has as its system HMCB cell line. Kind of assay: Compound was tested for [Ca2+] mobilization in NPY5 transfected human Bowes melanoma (HMCB) cell line. The format is functional, cell-based.
Assay [2] is filed under the species Rattus norvegicus. Kind of assay: Food intake was measured for a 3-h period in 24-h food deprived rats;+/- =significant reduction in food intake/- =no significant reduction in food intake. The format is functional, organism-based.
Assay [3] concerns Rattus norvegicus. The experiment in a line: Overnight food intake was measured in rat model in which compound was dosed 2 hr prior to onset of the dark cycle;+/- =significant reduction in food intake. The format is functional, organism-based.
Assay [4] deals with Rattus norvegicus. Kind of assay: Locomotor activity in male Sprague-Dawley rats at 40 mg/kg oral dose. It is filed as functional, organism-based. Set-up: dose 40 mg/kg.
Assay [5] has as its system Rattus norvegicus. The experiment in a line: Concentration of compound in plasma was determined following a dose of 40 mg/kg administered orally at 2 hr. The format is functional, organism-based. Details: dose 40 mg/kg.
The subject of assay [6] is Rattus norvegicus. Kind of assay: Concentration of compound in plasma was determined following a dose of 40 mg/kg administered orally at 4 hr. The format is functional, organism-based. Details: dose 40 mg/kg.
The test system of assay [7] is Rattus norvegicus. Kind of assay: Concentration of compound in plasma was determined following a dose of 40 mg/kg administered orally at 8 hr. It is filed as functional, organism-based. Set-up: dose 40 mg/kg.
The species named for assay [8] is Rattus norvegicus. The experiment in a line: Ratio of the concentrations of compound in Brain to that of Plasma was determined at 8 hr. The format is functional.
In assay [9] the test system is Rattus norvegicus. The experiment in a line: Overnight food intake was measured in rat model in which compound was dosed 2 hr prior to onset of the dark cycle; - =no significant reduction in food intake. It is filed as functional, organism-based.
In assay [10] the test system is Rattus norvegicus. Kind of assay: Concentration of compound in brain was determined following a dose of 40 mg/kg administered orally at 8 hr. It is filed as functional, organism-based. Set-up: dose 40 mg/kg.
The species named for assay [11] is Rattus norvegicus. The experiment in a line: Ratio of the concentrations of compound in brain to that of Plasma was determined at 2 hr. It is filed as functional.
The species named for assay [12] is Rattus norvegicus. Kind of assay: Ratio of the concentrations of compound in Brain to that of Plasma was determined at 1 hr. It is filed as functional.
The subject of assay [13] is Rattus norvegicus. Kind of assay: Concentration of compound in brain was determined following a dose of 40 mg/kg administered orally at 4 hr. Details: dose 40 mg/kg. It is filed as functional, organism-based.
The test system of assay [14] is Rattus norvegicus. The experiment in a line: Concentration of compound in brain was determined following a dose of 40 mg/kg administered orally at 2 hr. The format is functional, organism-based. Set-up: dose 40 mg/kg.
In assay [15] the test system is Rattus norvegicus. The experiment in a line: Concentration of compound in Cerebrospinal fluid(CSF) was determined following a dose of 40 mg/kg administered orally at 8 hr. The format is functional, organism-based. Set-up: dose 40 mg/kg.
The test system of assay [16] is Rattus norvegicus. The experiment in a line: Concentration of compound in plasma was determined following a dose of 40 mg/kg administered orally at 1 hr. Set-up: dose 40 mg/kg. It is filed as functional, organism-based.
The test system of assay [17] is Rattus norvegicus. Kind of assay: Concentration of compound in brain was determined following a dose of 40 mg/kg administered orally at 1 hr. The format is functional, organism-based. Details: dose 40 mg/kg.
The species entered for assay [18] is Rattus norvegicus. The experiment in a line: Ratio of the concentrations of compound in Brain to that of Plasma was determined at 4 hr. The format is functional.
Assay [19] is filed under the species Rattus norvegicus. The experiment in a line: Food intake was measured for a 3-h period in 24-h food deprived rats;+/- =significant reduction in food intake / - =no significant reduction in food intake. It is filed as functional, organism-based.
Assay [20] deals with Rattus norvegicus. The experiment in a line: Overnight food intake was measured in rat model in which compound was dosed 2 hr prior to onset of the dark cycle;- =no significant reduction in food intake. The format is functional, organism-based.
For assay [21], the species on record is Rattus norvegicus. The experiment in a line: Food intake was measured for a 3-h period in 24-h food deprived rats;+/+ =significant reduction in food intake. The format is functional, organism-based.

pEC50, pKi: −log10 of the molar value. The source made the active and inactive calls. The rule behind the calls is not given here.

In assay [1], `Clc1ccc(-c2c[nH]c(-c3ccccn3)n2)cc1Cl` showed a pKi of 7.52.

In the case of `c1cncc(-c2nc(C3CCCCC3)c[nH]2)c1`, the pEC50 in the assay on HMCB cell line is 7.44. Also, the pKi in assay [1] is 6.64.

Take `FC(F)(F)c1cccc(-c2c[nH]c(-c3cccnc3)n2)c1`: in the assay filed under Rattus norvegicus [2], the outcome was inactive. The compound further showed a pEC50 in the assay with HMCB cell line of 8.49. For the same compound, the pKi in [1] is 8.80. For the same compound, the outcome with Rattus norvegicus [3] was Active. Further, the Locomotor activity entry in the assay with Rattus norvegicus [4] was “Active”.

`COc1cccc(-c2c[nH]c(-c3cccnc3)n2)c1` had a pEC50 in the assay with HMCB cell line of 7.35. Moreover, the pKi in assay [1] was 7.25.

`c1ccc(-c2c[nH]c(-c3ccccc3)n2)cc1`: in assay [1], the negative-log Ki (pKi) is 7.47.

Turning to `Clc1ccccc1-c1c[nH]c(-c2cccnc2)n1`, the pEC50 in the assay with HMCB cell line is 7.82. This compound also had a pKi in assay [1] of 7.68.

In the assay on HMCB cell line, `Clc1ccc(-c2c[nH]c(-c3nccc4ccccc34)n2)cc1Cl` gave a pEC50 of 7.77. In assay [1], this compound showed a pKi of 6.94.

With `Cc1ccccc1-c1c[nH]c(-c2cccnc2)n1`, the pEC50 with HMCB cell line was 7.28. Further, in assay [1], the pKi is 7.40.

In [1], `Clc1ccc(-c2c[nH]c(-c3cc4ccccc4cn3)n2)cc1Cl` gave a pKi of 5.32.

Regarding `c1ccc(-c2c[nH]c(-c3ccncc3)n2)cc1`, the negative logarithm of the Ki (pKi) in assay [1] was 5.82.

In the assay with HMCB cell line, `FC(F)(F)c1ccccc1-c1c[nH]c(-c2cccnc2)n1` showed a negative-log EC50 (pEC50) of 7.41. The compound also showed a pKi in assay [1] of 7.57.

In turn, `Clc1ccc(-c2c[nH]c(-c3cnccn3)n2)cc1Cl` gave a negative-log Ki (pKi) in [1] of 7.40.

In the case of `N#Cc1ccc(-c2c[nH]c(-c3cccnc3)n2)cc1`, the pKi in [1] was 5.52.

`Fc1ccc(-c2c[nH]c(-c3cccnc3)n2)cc1F`: the pKi in [1] is 7.47.

For the compound `Clc1cccc(-c2c[nH]c(-c3cccnc3)n2)c1`, the Concentration with Rattus norvegicus [5] came out at 11 µM; in the assay on Rattus norvegicus [6], 6.2 µM; with Rattus norvegicus [7], 1.3 µM; in the assay on Rattus norvegicus [10], 4 µM; with Rattus norvegicus [13], 29 µM; in the assay on Rattus norvegicus [14] it was 56 µM. The Concentration with Rattus norvegicus [15] is 0.011 µM; with Rattus norvegicus [16] it was 10 µM; in the assay with Rattus norvegicus [17] it was 45 µM. In addition, the result in the assay filed under Rattus norvegicus [2] and in the assay on Rattus norvegicus [9] was inactive. Besides, the Ratio in the assay listed under Rattus norvegicus [8] amounted to 5.3; in the assay filed under Rattus norvegicus [11], 5.1; in the assay filed under Rattus norvegicus [12], 4.4; in the assay filed under Rattus norvegicus [18], 4.8. Besides, the pKi in assay [1] was 8.10.

Regarding `Clc1ccc(-c2c[nH]c(-c3cccnc3)n2)cc1Cl`, in the assay listed under Rattus norvegicus [19], the result was inactive. The same compound showed a pKi in assay [1] of 8.40.

As to `Clc1ccc(-c2c[nH]c(-c3ccncc3)n2)cc1Cl`, in assay [1], the pKi is 8.46.

For `Clc1ccc(-c2c[nH]c(-c3cccnc3)n2)cc1`, in the assay on Rattus norvegicus [20], the result was inactive. The compound also showed a negative-log Ki (pKi) in assay [1] of 7.80. Also, the outcome in the assay filed under Rattus norvegicus [21] was Active. The Locomotor activity entry with Rattus norvegicus [4] was “Active”.

In turn, `c1ccc(-c2c[nH]c(-c3ccccn3)n2)cc1` had a negative logarithm of the Ki (pKi) in assay [1] of 5.84.

`FC(F)(F)Oc1ccc(-c2c[nH]c(-c3cccnc3)n2)cc1` showed a pKi in [1] of 6.68.

The compound `c1ccc(-c2c[nH]c(-c3cccnc3)n2)cc1` gave a pKi in [1] of 6.28.

With `COc1ccc(-c2c[nH]c(-c3cccnc3)n2)cc1OC`, the pEC50 with HMCB cell line is 6.14. The compound also gave a pKi in assay [1] of 6.83.

The compound `Cc1[nH]c(-c2cccnc2)nc1-c1ccc(Cl)cc1` gave a pKi in assay [1] of 7.16.

In turn, `Cc1[nH]c(-c2cccnc2)nc1-c1cccc(Cl)c1` had a pEC50 with HMCB cell line of 7.40. The compound also showed a pKi in assay [1] of 7.72.

In the assay on HMCB cell line, `Cc1cccc(-c2c[nH]c(-c3cccnc3)n2)c1` had a negative-log EC50 (pEC50) of 7.62. This compound also gave a pKi in [1] of 7.85.

In the assay with HMCB cell line, `FC(F)(F)Oc1cccc(-c2c[nH]c(-c3cccnc3)n2)c1` gave a pEC50 of 7.89. This compound also had a pKi in assay [1] of 8.31.

As for `FC(F)(F)c1ccc(-c2c[nH]c(-c3cccnc3)n2)cc1`, the negative-log Ki (pKi) in assay [1] is 7.43.

As for `Clc1ccc(-c2c[nH]c(-c3cnc4ccccc4c3)n2)cc1Cl`, the pKi in assay [1] was < 5.00.
